Results as given in patent publication US11364247B2, “Methods of treatment of partial onset seizures using eslicarbazepine acetate” (BIAL-PORTELA & CA S.A., priority 2005, dated 2022).
One block for each compound: values may come before it.

Columns and labels:
[1] = Entry-into-man studies in healthy subjects (Almeida I, Almeida II), plasma and urine pharmacokinetics; assay type: in vivo, human
Text: Studies in humans have shown that, after oral administration, eslicarbazepine acetate appears to be rapidly and extensively metabolized to the active metabolite eslicarbazepine and, in a minor extent, to R-licarbazepine. See Silveira et al., “BIA 2-093 Pharmacokinetics in Healthy Elderly Subjects,” Epilepsia, 45 (suppl. 3), 157 (2004). […] See Almeida I; Almeida, L. & Soares-da-Silva, P., “Safety, Tolerability and Pharmacokinetic Profile of BIA 2-093, a Novel Putative Antiepileptic Agent, during First Administration to Humans,” Drugs R&D, 4, 269-284 (2003) (herein referred to as “Almeida II”).
The inventors performed entry-into-man studies in healthy subjects, the results of which they described in the Almeida I and Almeida II articles, both of which are hereby incorporated by reference. In these studies, the healthy subjects received a single oral dose of eslicarbazepine acetate wherein the dose ranged from 20 mg to 1200 mg (see Almeida II), and multiple daily-doses of eslicarbazepine acetate ranging from 200 mg twice-daily to 1200 mg once-daily (see Almeida I). Further studies (not yet published) by the inventors have investigated higher doses of eslicarbazepine acetate, including, for example, doses ranging up to 2400 mg once-daily.

[2] = Study in epileptic patients: trough plasma concentrations of BIA 2-005; assay type: in vivo, human
Text: This clinical trial was a double-blind, randomized, placebo-controlled study performed by 20 centers in Croatia, Czech Republic, Germany, Lithuania and Poland. The stated objectives of the study were to assess the efficacy and safety of BIA 2-093 as adjunctive therapy in patients with refractory partial epilepsy. In total, 143 patients aged 18-65 years with at least 4 partial-onset seizures per month in spite of treatment with 1 or 2 antiepileptic drugs (AEDs) (e.g., phenytoin, valproate, primidone, phenobarbital, lamotrigine, gabapentin, topiramate or clonazepam) were randomly assigned to one of three groups: treatment with placebo (n=47), BIA 2-093 once-daily (n=50), or BIA 2-093 twice-daily (n=46), during 12 weeks (plus 1 week of tapering off). For the first 4 weeks, daily dose was 400 mg. Then, daily doses were increased to 800 mg (weeks 5-8), and finally to 1200 mg (weeks 9-12). Tablets with strengths of 200 mg, 400 mg, and 600 mg eslicarbazepine acetate and placebo tablets were manufactured by BIAL (S. Mamede do Coronado, Portugal) in accordance with Good Manufacturing Practice. The assay plasma to determine the concentration of BIA 2-005 was performed with a non-chiral method using isocratic liquid chromatography (LC) with single quadrupole mass spectrometric detection (MS), as described herein. See, e.g., Almeida I and Almeida II.
Plasma/serum samples for the “trough” (pre-dose) levels of BIA 2-005 and concomitant AEDs were collected at all visits but V5 (post-study visit). The objective was to characterize the influence of eslicarbazepine acetate on the pharmacokinetic behavior of the concomitant AEDs (e.g., phenytoin, valproate, primidone, phenobarbital, lamotrigine, gabapentin, topiramate, and clonazepam).

[3] = Trial A: steady-state pharmacokinetics of once-daily and twice-daily regimens in healthy volunteers; assay type: in vivo, human; conditions: arithmetic mean; for AUC0-t / AUC0-∞ / Cmax / t1/2 / tmax: after last dose (8 days)
Description: This human pharmacology trial was a study to investigate the steady-state pharmacokinetics of once-daily and twice-daily regimens of eslicarbazepine acetate in healthy subjects. The study was a single center, open-label, randomized, two-way crossover study in 12 healthy volunteers (6 males and 6 females) that consisted of two 8-day treatment periods separated by a washout period of 10-15 days. […] Tablets with a strength of 450 mg of eslicarbazepine acetate, manufactured by BIAL (S. Mamede do Coronado, Portugal) in accordance with Good Manufacturing Practice, were used.
Blood samples for drug plasma assays were taken at the following times: […]
Blood samples were drawn either by direct venipuncture or via an intravenous catheter into lithium heparin tubes and centrifuged at approximately 1500 g for 10 minutes at 4° C. The resulting plasma was separated into 2 equal aliquots of 1 mL and stored at −20° C. until required for analysis.
Plasma concentrations of eslicarbazepine acetate, eslicarbazepine, and R-licarbazepine were determined using isocratic liquid chromatography (LC) with single quadrupole mass spectrometric detection (MS).
The method involved the addition of 500 μL of approximately 0.5 μg/mL of 10,11-dihydrocarbamazepine (internal standard prepared in acetonitrile:water, 3:97, v:v) to 250 μL of plasma (centrifuged at 1800 rpm, prior to analysis) in a polypropylene tube. After vortex mixing for 10 seconds, the mixture was transferred to a Schleicher and Schuell C18/100 mg 96 well solid phase extraction plate. Each well was preconditioned with 800 μL methanol, followed by 800 μL acetonitrile and 800 μL acetonitrile:water (3:97, v:v) prior to application of the total sample volume. Each polypropylene tube was then washed with 500 μL acetonitrile:water (3:97, v:v) and the washings transferred to the respective well. The compounds were eluted into a collection plate with 750 μL acetonitrile and the extract evaporated to dryness under oxygen-free nitrogen, at 40° C. All solid phase extraction manipulations were undertaken using the Tomtec QUADRA 96® Model 320 system and a vacuum was applied at each elution step. The final extract was reconstituted in 100 μL of water:methanol (90:10, v:v) and mixed. The collection plate was then centrifuged at approximately 3000 rpm (at approximately 4° C., for approximately 10 minutes) prior to analysis. An aliquot of the final extract (10 μL) was injected onto the LC-MS system.
The LC-MS system used in the analysis consisted of a Perkin Elmer series 200 micro pump, a Perkin Elmer series 200 autosampler, and a Perkin Elmer/Sciex API 150EX single quadrupole mass spectrometer fitted with a Turbo IonSpray® source. Separation was achieved using a LichroCART 250-4 ChiraDex column (β-cyclodextrin, 5 μm), a LichroCART 4-4 ChiraDex column guard column (β-cyclodextrin, 5 μm), a Jones Chromatography 7971 column heater at 50° C., a mobile phase A (0.2 mM sodium acetate, aq) and a mobile phase B (0.2 mM sodium acetate, MeOH). The MS detector was operated in positive ion mode with mass transitions for BIA 2-093, eslicarbazepine, R-licarbazepine, and the internal standard of 319.16 amu (200 ms), 277.08 amu (200 ms), 277.08 amu (200 ms) and 261.05 amu (200 ms), respectively. The limit of quantification of the assay was 10 ng/mL for eslicarbazepine acetate and 100 ng/mL for eslicarbazepine and R-licarbazepine.
Eslicarbazepine acetate, (S)-(−)-10-acetoxy-10,11-dihydro-5H-dibenz/b,f/azepine-5-carboxamide; eslicarbazepine, (S)-(+)-10,11-dihydro-10-hydroxy-5H dibenz/b,f/azepine-5-carboxamide; and R-licarbazepine, (R)-(−)-10,11-dihydro-10-hydroxy-5H dibenz/b,f/azepine-5-carboxamide, were synthesized in the Laboratory of Chemistry, BIAL, with purities>99.5%. The internal standard, 10,11-dihydrocarbamazepine was supplied by Sigma-Aldrich (St. Louis, Mo.).
The pharmacokinetic parameters were derived from non-compartmental analysis using WinNonlin (Version 4.0, Pharsight Corporation, Mountain View, Calif.). […]

[4] = Metabolic profile in liver microsomes, chiral analysis; assay type: in vitro ADME; conditions: liver microsomes from rats, dogs, monkeys and humans, not the R(−) form
[5] = test system: refractory partial epilepsy (partial-onset seizures); assay: Study in epileptic patients: efficacy as adjunctive therapy; assay type: in vivo, human; conditions: once-daily group compared with the other groups
Description: This clinical trial was a double-blind, randomized, placebo-controlled study performed by 20 centers in Croatia, Czech Republic, Germany, Lithuania and Poland. The stated objectives of the study were to assess the efficacy and safety of BIA 2-093 as adjunctive therapy in patients with refractory partial epilepsy. […] For the first 4 weeks, daily dose was 400 mg. Then, daily doses were increased to 800 mg (weeks 5-8), and finally to 1200 mg (weeks 9-12). Tablets with strengths of 200 mg, 400 mg, and 600 mg eslicarbazepine acetate and placebo tablets were manufactured by […] do Coronado, Portugal) in accordance with Good Manufacturing Practice. […] See, […] and Almeida II. The proportion of patients with a 50% or greater reduction in seizure frequency in the treatment period compared to the baseline period in the intention-to-treat (ITT) population (n=143) was the primary efficacy endpoint. […] The proportion of responders in the once-daily group (54%) was also higher than in the twice-daily (41%) group. […] At this dose level, no significant difference was found between the twice-daily and the placebo groups. Secondary endpoints include the reduction in total seizure frequency, proportion of seizure-free patients, distribution of responders, comparison of once and twice daily regimens, and investigator's and patient's global evaluation.

[6] = test system: voltage-gated sodium channel (VGSC); conditions: compared with carbamazepine; cited from earlier work
[7] = Trial B: pharmacokinetics following single doses in healthy young male subjects; assay type: in vivo, human
Description: (§1) This human pharmacology trial was a study to determine the pharmacokinetics of eslicarbazepine acetate following single and repeated doses. The study integrated the results of three double-blind, randomized, placebo-controlled trials. To measure the pharmacokinetics of eslicarbazepine acetate following single doses, oral single doses of eslicarbazepine acetate ranging from 20 mg to 2400 mg were administered to healthy young male subjects (6 subjects per dose). The pharmacokinetics of eslicarbazepine acetate following repeated doses were measured by administering repeated oral doses ranging from 400 mg to 2400 mg of eslicarbazepine acetate to healthy young male subjects (6 subjects per dose) over a period of 8 days. Analytical test methods and experimental procedures were similar to those described for Trial A above.

[8] = Trial B: pharmacokinetics following repeated once-daily doses over 8 days in healthy young male subjects; assay type: in vivo, human; conditions: for tmax: male, human, plasma, oral, read-out: Median tmax
Description: as §1

[9] = multiple oral dose of 900 mg eslicarbazepine acetate once-daily
[10] = multiple oral dose of 900 mg eslicarbazepine acetate twice-daily
[11] = single oral dose of 1200 mg eslicarbazepine acetate

- mean renal clearance from plasma ([1]; BIA 2-005, healthy subjects): 20 to 30 mL/min
- extent of systemic exposure ([1]; BIA 2-005 after oral eslicarbazepine acetate, healthy subjects): approximately dose-proportional
- trough plasma concentration, mean (sd) ([2]; 400 mg/day eslicarbazepine acetate, b.i.d. group): 4.9 (2.3) μg/mL
- trough plasma concentration, mean (sd) ([2]; 400 mg/day eslicarbazepine acetate, o.d. group): 4.0 (3.2) μg/mL
- trough plasma concentration, mean (sd) ([2]; 800 mg/day eslicarbazepine acetate, b.i.d. group): 13.5 (9.6) μg/mL
- trough plasma concentration, mean (sd) ([2]; 800 mg/day eslicarbazepine acetate, o.d. group): 10.7 (7.0) μg/mL
- trough plasma concentration, mean (sd) ([2]; 1200 mg/day eslicarbazepine acetate, b.i.d. group): 15.5 (8.8) μg/mL
- trough plasma concentration, mean (sd) ([2]; 1200 mg/day eslicarbazepine acetate, o.d. group): 14.6 (8.8) μg/mL
Structure (SMILES): NC(=O)N1c2ccccc2CC(O)c2ccccc21 (stereo not drawn) [BIA 2-005]

- AUC0-t [3, 9]: 19,600 ng · h/mL
- AUC0-∞ [3, 9]: 23989 ng·h/mL
- Cmax [3, 9]: 674 ng/mL
- t1/2 [3, 9]: 15.0 h
- tmax [3, 9]: 9.42 h
- AUC0-τ ([3]; multiple oral dose of 900 mg eslicarbazepine acetate once-daily, dosing interval 24 hours): 13397 ng·h/mL
- AUC0-t [3, 10]: 19,661 ng · h/mL
- AUC0-∞ [3, 10]: 23807 ng·h/mL
- Cmax [3, 10]: 718 ng/mL
- t1/2 [3, 10]: 14.8 h
- tmax [3, 10]: 6.40 h
- AUC0-τ ([3]; multiple oral dose of 900 mg eslicarbazepine acetate twice-daily, dosing interval 12 hours): 7783 ng·h/mL
Structure (SMILES): NC(=O)N1c2ccccc2C[C@@H](O)c2ccccc21 [R-licarbazepine, (R)-(−)-10,11-dihydro-10-hydroxy-5H dibenz/b,f/azepine-5-carboxamide]

Structure (SMILES): CC(=O)O[C@H]1Cc2ccccc2N(C(N)=O)c2ccccc21 [eslicarbazepine acetate, (S)-(−)-10-acetoxy-10,11-dihydro-5H-dibenz/b,f/azepine-5-carboxamide]
- metabolite formed [4]: S(+) enantiomer of licarbazepine
- assessment of efficacy by the investigator (CGI) and of acceptability by patient [5]: rated best
- affinity for the resting state of the sodium channel, lower than that of carbamazepine [6]: about 3 fold

- AUC0-t ([7]; male, human, plasma, single oral dose of 2400 mg eslicarbazepine acetate, read-out: Mean AUC0-24 h): 446000 ng·h/mL
- Mean apparent t1/2 ([7]; single oral dose of 20 mg eslicarbazepine acetate): 9.1 h
- Median tmax ([7]; single oral dose of 400 mg eslicarbazepine acetate): 4 h
- Median tmax ([7]; single oral dose of 600 mg eslicarbazepine acetate): 4 h
- Mean AUC0-24 h [7, 11]: 285,700 ng · h/mL
- Median tmax [7, 11]: 4 h
- Mean apparent t1/2 ([7]; single oral dose of 2400 mg eslicarbazepine acetate): 11.1 h
- Mean Cmax ([8]; last dose of 8-day repeated 800 mg o.d. eslicarbazepine acetate): 18,700 ng/mL
- tmax ([8]; last dose of 8-day repeated 1800 mg o.d. eslicarbazepine acetate): 2 h
- tmax ([8]; last dose of 8-day repeated 2400 mg o.d. eslicarbazepine acetate): 2 h
Structure (SMILES): NC(=O)N1c2ccccc2C[C@H](O)c2ccccc21 [eslicarbazepine, (S)-(+)-10,11-dihydro-10-hydroxy-5H dibenz/b,f/azepine-5-carboxamide]
